Structures can show the parent of a compound that is named as a salt.
Assays:
dopamine uptake = test: Biogenic amine uptake inhibition, rat brain synaptosomes, tritiated dopamine; assay type: biochemical, Sprague-Dawley derived rats; conditions: tritiated amine 0.1 μM, 37° C., 4 minutes
Description: (§1) Sprague-Dawley derived rats of either sex, weighing about 180-250 g, were killed by decapitation. The brains were immediately removed, placed on a glass plate chilled over crushed ice and dissected according to a modification of the method of Glowinski and Iversen (J. Neurochem. 13, 655-669, 1966). First, the rhombencephalon was separated by transverse section and discarded. The remaining tissue was bisected by a midline sagittal cut. The hypothalamus was removed using the anterior and posterior reference points, respectively. The hippocampus was peeled away and discarded and the striata were exposed and removed. Frontal cortical tissue was dissected from remaining brain structures. The hypothalamus and striatum each weighed about 100 mg , the striata 50-75 mg, and the cortex weighed up to 800 mg. The tissues were placed in a cold Potter-Elvehjem glass homogenizer with 5 (cortex) or 10 (hypothalamus) and 20 (striatum) volumes of ice-cold 0.32M sucrose, pH 7.0 and homogenized by hand. The homogenate was centrifuged at 2500 rpm in a GLC centrifuge for 10 minutes in a refrigerated room. The supernatant fraction containing the synaptosomes was decanted, mixed thoroughly, and kept on crushed ice for use in the uptake studies.
(§2) Uptake studies were conducted according to the method of Synder and Coyle (J. PharmacoI. Exp. Ther. 165, 78-86, 1969) with minor modifications. Usually a 0.1 ml aliquot of the synaptosomal preparation was incubated in a mixture of 0.75 ml of modified Krebs-Ringer buffer, 0.05 ml of the drug being evaluated for uptake inhibition, and 0.1 ml of a 1 μM tritiated amine (norepinephrine, serotonin or dopamine) solution (final concentration 0.1 μM) for a total volume of 1 ml. The modified Krebs-Ringer bicarbonate buffer used in these studies contained 118 mM NaCl, 4 mM KCl, 1.3 mM CaCl2, 1.12 mM KH2 PO4, 1.2 mM MgSO4 and 24 mM NaHCO3, with the addition of 5 mM glucose, 0.15 mM disodium EDTA, 12.5 μM pargyline and 1 mM ascorbic acid. Uptake was initiated by the addition of the tritiated amine, and the mixture was incubated at 37° C. in a Dubnoff Metabolic Shaking Incubator for 4 minutes. Control incubations without the test drug were conducted at 37° C. to determine total uptake and non-specific binding at 0° C. to correct for the diffusion of the tritiated amine into the synaptosomes and/or binding. Filtration was used to terminate uptake and collect the synaptosomes. In the filtration technique the incubation mixture was diluted with 4 ml of ice-cold 0.9% NaCl and filtered through GF/B glass microfiber filters (Whatman) under gentle vacuum. The filters were subsequently washed four times with 5 ml of ice-cold 0.9% NaCl and transferred to glass scintillation vials. Soluene® ([…]) and IONIC FLUOR (Packard) scintillation fluid (3.5 ml) were added and the vials were placed in a mechanical shaker for 1 hour. All samples were cold and dark adapted and counted in a TriCarb® (Packarad) Model 460 Liquid Scintillation Spectrometer. Corrections were automatically made for quenching by the external standard method and for luminescence. All results (see Table 2) are based on total radioactivity.

norepinephrine uptake = test: Biogenic amine uptake inhibition, rat brain synaptosomes, tritiated norepinephrine; assay type: biochemical, Sprague-Dawley derived rats; conditions: tritiated amine 0.1 μM, 37° C., 4 minutes, read-out: Biogenic Amine Uptake Inhibition IC50 Norephinephrine
Description: as §1, §2

serotonin uptake = test: Biogenic amine uptake inhibition, rat brain synaptosomes, tritiated serotonin; assay type: biochemical, Sprague-Dawley derived rats; conditions: tritiated amine 0.1 μM, 37° C., 4 minutes
Description: as §1, §2

alpha-2-receptor = test: Radioligand binding, alpha-2 adrenoceptor, rat cerebral cortices, [^3 H]-rauwolscine; conditions: for Ki: rat cerebral cortices, [^3 H]-rauwolscine; for alpha-2 - Selectivity Ki alpha-1/Ki alpha 2: ratio of Ki alpha-1 to Ki alpha-2
Method: The compounds were assessed for alpha-adrenergic receptor subtype selectivity by use of radioligand binding techniques as described previously (DeBernardis et.al. J. Med. Chem. 28, 1398 (1985)).

intraocular pressure = test: Effect of topically administered compounds on intraocular pressure of rabbits; assay type: in vivo, New Zealand rabbits; conditions: 0.3% soln., 0.1 ml topical
Method: The intraocular pressure lowering effects of the compounds were evaluated in unanesthetized male albino, New Zealand rabbits weighing 2.0 to 2.5 kg. The rabbits were placed in Plas Labs restraining devices for the duration of the experiment. Intraocular pressure (IOP) was measured with a Bausch and Lomb Applamatic Tonometer and recorded as the average of three individual readings at each time point in the experiment. Baseline IOP values were established at three time points separated by 30 minutes. Each compound or vehicle was applied topically to the cornea in a volume of 0.1 ml to one eye in each six rabbits. The contralateral eye was untreated. IOP was recorded at 5, 15, 30, 60 and 90 minutes after dosing.

“8-Fluoro-5,6-methylenedioxy-1-(3-phenylpyrrolidino1-methyl) tetralin hydrochloride [Example 160]” was tested, and the IC50 (dopamine uptake) was 2.93 µM, the IC50 (norepinephrine uptake) was 0.991 µM and the IC50 (serotonin uptake) was 1.84 µM.

With `COc1ccc2c(c1)CCCC2CN(C)CCc1cccc(F)c1` (centres unmarked) [Example 6b, 1-((N-methylamino)methyl-N-(2-(m-fluorophenyl)ethyl))-6-methoxy tetralin hydrochloride] the Ki (alpha-2-receptor) was 0.005 µM, the “alpha-2 - Selectivity Ki alpha-1/Ki alpha 2” value (alpha-2-receptor) was 236 and the IC50 (dopamine uptake) was 10.1 µM. For the same compound, the IC50 (norepinephrine uptake) was 0.574 µM and the IC50 (serotonin uptake) was 1.95 µM.

In the case of `CCN(CCc1cccs1)CC1CCCc2cc(OC)ccc21` (centres unmarked) [Example 41, 1-((N-Ethylamino)methyl-N-(2-(2-thienyl)ethyl))-6-methoxy tetralin hydrochloride], the Ki (alpha-2-receptor) is reported as 0.0029 µM, the “alpha-2 - Selectivity Ki alpha-1/Ki alpha 2” value (alpha-2-receptor) is reported as 326 and the IC50 (dopamine uptake) is reported as 6.03 µM. It also gave an IC50 (norepinephrine uptake) of 0.2 µM and an IC50 (serotonin uptake) of 2.28 µM.

`c1ccc(C2CCN(CC3CCCc4c3ccc3c4OCO3)C2)cc1` (centres unmarked) [Example 143a, 5,6-Methylenedioxy-1-(3-phenylpyrrolidino-1-methyl) tetralin methanesulfonate] was tested, and the Ki (alpha-2-receptor) was 0.0012 µM, the “alpha-2 - Selectivity Ki alpha-1/Ki alpha 2” value (alpha-2-receptor) was 43 and the IC50 (dopamine uptake) was 8.72 µM. For the same compound, the IC50 (norepinephrine uptake) was 1.1 µM and the IC50 (serotonin uptake) was 4.03 µM.

In the case of `CN(CCc1cccc(F)c1)CC1CCCc2cc(O)ccc21` (centres unmarked) [Example 10, 1-((N-Methylamino)methyl-N-(2-(m-fluorophenyl)ethyl))6-hydroxy tetralin hydrochloride], the “% Change in Intraocular Pressure After Treatment Compared to Untreated Eye” value (shortened to “% Change”) (intraocular pressure; 5 minutes) is reported as -45%, the “% Change” value (intraocular pressure; 15 minutes) is reported as -31% and the “% Change” value (intraocular pressure; 30 minutes) is reported as -25%. The “% Change” value (intraocular pressure; 60 minutes) was -36% and the “% Change” value (intraocular pressure; 90 minutes) was -23%.

With `Cc1cc(O)c(O)c2c1C(CN(C)CCc1cccc(F)c1)CCC2` (centres unmarked) [Example 34, 1-(N-Methylamino)methyl-N-(2-(m-fluorophenyl)ethyl))-5,6-dihydroxy-8-methyltetralin hydrobromide] the Ki (alpha-2-receptor) was 0.0026 µM, the “alpha-2 - Selectivity Ki alpha-1/Ki alpha 2” value (alpha-2-receptor) was 127 and the IC50 (dopamine uptake) was 9.4 µM. For the same compound, the IC50 (norepinephrine uptake) was 0.365 µM and the IC50 (serotonin uptake) was 2.2 µM.

In the case of `COc1ccc2c(c1)CCCC2CN(C)CCc1cccs1` (centres unmarked) [Example 5, 1-((N-Methylamino)methyl-N-(2-(2-thienyl)ethyl))-6-methoxy tetralin methanesulfonate], the Ki (alpha-2-receptor) is reported as 0.0008 µM, the “alpha-2 - Selectivity Ki alpha-1/Ki alpha 2” value (alpha-2-receptor) is reported as 725 and the IC50 (dopamine uptake) is reported as 6.53 µM. For the same compound, the IC50 (norepinephrine uptake) was 1.04 µM and the IC50 (serotonin uptake) was 5.92 µM.

Compound `CCN(CCc1cccs1)CC1CCCc2c(OC)cccc21` (centres unmarked) [Example 73, 1-((N-Ethylamino)methyl-N-(2-(2-thienyl)ethyl))-5-methoxy tetralin hydrochloride] has an IC50 (dopamine uptake) of 8.43 µM, an IC50 (norepinephrine uptake) of 0.336 µM and an IC50 (serotonin uptake) of 0.84 µM.

With `CCN(CCc1ccsc1)CC1CCCc2cc(OC)ccc21` (centres unmarked) [Example 44, 1-N-Ethylamino)methyl-N-(2-(3-thienyl)ethyl))-6-methoxy tetralin hydrochloride] the Ki (alpha-2-receptor) was 0.0056 µM, the “alpha-2 - Selectivity Ki alpha-1/Ki alpha 2” value (alpha-2-receptor) was 105 and the IC50 (dopamine uptake) was 8.64 µM. It also gave an IC50 (norepinephrine uptake) of 0.357 µM and an IC50 (serotonin uptake) of 3.29 µM.

`CN(CCc1cccc(F)c1)CC1CCCc2c1ccc1c2OCO1` (centres unmarked) [Example 166, 1-((N-Methylamino)methyl-N-(2-m-fluorophenethyl))-5,6-methylenedioxy tetralin methanesulfonate] was tested, and the Ki (alpha-2-receptor) was 0.0045 µM, the “alpha-2 - Selectivity Ki alpha-1/Ki alpha 2” value (alpha-2-receptor) was 134 and the IC50 (dopamine uptake) was 8.77 µM. For the same compound, the IC50 (norepinephrine uptake) was 1.52 µM and the IC50 (serotonin uptake) was 0.4 µM.

`COc1cccc2c1CCCC2CN(C)CCc1cccc(F)c1` (centres unmarked) [Example 20c, 1-((N-methylamino)methyl-N-(2-(m-fluorophenyl)ethyl))-5-methoxytetralinmethanesulfonate] was tested, and the IC50 (dopamine uptake) was 9.17 µM, the IC50 (norepinephrine uptake) was 1.58 µM and the IC50 (serotonin uptake) was 0.161 µM.

For `CN(CCc1cccs1)CC1CCCc2c1ccc1c2OCCO1` (centres unmarked) [Example 30, 1-((N-Methylamino)methyl-N-(2-(2-thienyl)ethyl))-5,6-ethylenedioxy tetralin hydrochloride], the Ki (alpha-2-receptor) was 0.004 µM, the “alpha-2 - Selectivity Ki alpha-1/Ki alpha 2” value (alpha-2-receptor) was 118 and the IC50 (dopamine uptake) was 8.08 µM. It also gave an IC50 (norepinephrine uptake) of 0.624 µM and an IC50 (serotonin uptake) of 1.34 µM.

For `CN(CCc1ccccc1)CC1CCCc2cc(O)ccc21` (centres unmarked) [Example 11, 1-((N-Methylamino)methyl-N-(2-phenylethyl))-6-hydroxy tetralin hydrobromide], the IC50 (dopamine uptake) was 10.1 µM, the IC50 (norepinephrine uptake) was 1.74 µM and the IC50 (serotonin uptake) was 7.23 µM.

In the case of `CN(C)CCCN1c2ccccc2CCc2ccccc21` [Imipramine, reference compound], the IC50 (dopamine uptake) is reported as 125 µM, the IC50 (norepinephrine uptake) is reported as 0.346 µM and the IC50 (serotonin uptake) is reported as 0.778 µM.

`CCN(CCc1cccc(F)c1)CC1CCCc2c(OC)cccc21` (centres unmarked) [Example 72, 1-((N-Ethylamino)methyl-N-(2-(m-fluorophenyl)ethyl))-5-methoxy tetralin hydrochloride] was tested, and the IC50 (dopamine uptake) was 6.83 µM, the IC50 (norepinephrine uptake) was 0.137 µM and the IC50 (serotonin uptake) was 0.466 µM.

For `Fc1ccccc1C1CCN(CC2CCCc3c2ccc2c3OCO2)C1` (centres unmarked) [Example 176a, 5,6-Methylenedioxy-1-(3-(o-fluorophenyl)pyrrolidino-1-methyl) tetralin methanesulfonate], the Ki (alpha-2-receptor) was 0.0006 µM, the “alpha-2 - Selectivity Ki alpha-1/Ki alpha 2” value (alpha-2-receptor) was 132 and the IC50 (dopamine uptake) was 7.31 µM. For the same compound, the IC50 (norepinephrine uptake) was 1.56 µM and the IC50 (serotonin uptake) was 2.83 µM.

In the case of `COc1cccc2c1CCCC2CN(C)CCc1cccs1` (centres unmarked) [Example 19, 1-((N-Methylamino)methyl-N-(2-(2-thienyl)ethyl))-5-methoxy tetralin methanesulfonate], the IC50 (dopamine uptake) is reported as 6.09 µM, the IC50 (norepinephrine uptake) is reported as 0.498 µM and the IC50 (serotonin uptake) is reported as 0.411 µM.

For `CCN(CCc1cccc(F)c1)CC1CCCc2c1ccc1c2OCO1` (centres unmarked) [Example 165, 1-((N-Ethylamino)methyl-N-(2 m-fluorophenethyl))-5,6-methylenedioxy tetralin hydrochloride], the Ki (alpha-2-receptor) was 0.0035 µM, the “alpha-2 - Selectivity Ki alpha-1/Ki alpha 2” value (alpha-2-receptor) was 132 and the IC50 (dopamine uptake) was 6.67 µM. For the same compound, the IC50 (norepinephrine uptake) was 0.398 µM and the IC50 (serotonin uptake) was 1.24 µM.

With `c1csc(C2CCN(CC3CCCc4c3ccc3c4OCO3)C2)c1` (centres unmarked) [Example 144, 5,6-Methylenedioxy-1-(3-(2-thienyl)pyrrolidino-1-methyl) tetralin methanesulfonate] the Ki (alpha-2-receptor) was 0.0012 µM and the “alpha-2 - Selectivity Ki alpha-1/Ki alpha 2” value (alpha-2-receptor) was 204.

For `CCOc1ccc2c(c1)CCCC2CN(C)CCc1cccc(N)c1` (centres unmarked) [Example 69, 1-((N-Methylamino)methyl-N-(2-(m-aminophenyl)ethyl))-6-ethoxy tetralin dihydrochloride], the Ki (alpha-2-receptor) was 0.013 µM and the “alpha-2 - Selectivity Ki alpha-1/Ki alpha 2” value (alpha-2-receptor) was 98.

Reference: US5140040A, “1-aminomethyl-1,2,3,4-tetrahydronaphthalenes” (Abbott Laboratories, priority 1991, dated 1992)
